Patent US6362134B1, “Herbicidal 1,2,4,6-thiatriazines” (Syngenta Investment Corporation, priority 1996, dated 2002)

Key:
[1] = Stability of the isolated compound when left to stand; type: physicochemical; conditions: isolated product
Protocol: 4.09 g (0.02 mol) of 1,3,5-trichlorothiatriazine are stirred as a suspension in 50 ml of carbon tetrachloride at −25° C., and a solution of 0.70 g (0.022 mol) of methanol in a little carbon tetrachloride is added dropwise. During this operation, the trichlorothiatriazine dissolves apart from a little insoluble product. The mixture is then warmed to 0° C. and filtered and the filtrate is concentrated on a rotary evaporator at a maximum of 50° C. 3.25 g of the desired product, which, according to the ^13C-NMR spectrum and thin layer chromatogram (silica gel; eluting agent ethyl acetate/hexane 1/3), contains practically no further impurities, are obtained as the residue.

[2] = test system: Avena; experiment: Herbicidal action before emergence of the plants (pre-emergent action); type: in vivo; conditions: 2000 g of active substance/ha, sprayed immediately after sowing, evaluated after 3 weeks, ratings scale of nine levels (1=complete damage, 9=no action)
Protocol: (§1) Monocotyledon and dicotyledon test plants are sown in standard soil in plastic pots. Immediately after sowing, the test substances are sprayed on (500 l of water/ha) in an aqueous suspension prepared from a 25% wettable powder (Example F3, b)), corresponding to a dosage of 2000 g of active substance/ha. The test plants are then grown under optimum conditions in a greenhouse. After a test period of 3 weeks, the test is evaluated with a ratings scale of nine levels (1=complete damage, 9=no action). Ratings of 1 to 4 (in particular 1 to 3) mean a good to very good herbicidal action.
(§2) Test plants: Avena, Setaria, Sinapis, Stellaria

[3] = test system: Setaria; experiment: as above; type: in vivo; parameters: key: 1=complete damage; 9=no action; Ratings of 1 to 4 (in particular 1 to 3) mean a good to very good herbicidal action; conditions: 2000 g of active substance/ha, sprayed immediately after sowing, evaluated after 3 weeks, ratings scale of nine levels
Protocol: as §1, §2

[4] = test system: Sinapis; experiment: as above; type: in vivo; parameters: key: 1=complete damage; 9=no action; Ratings of 1 to 4 (in particular 1 to 3) mean a good to very good herbicidal action; conditions: 2000 g of active substance/ha, sprayed immediately after sowing, evaluated after 3 weeks, ratings scale of nine levels
Protocol: as §1, §2

[5] = test system: Stellaria; experiment: as above; type: in vivo; parameters: key: 1=complete damage; 9=no action; Ratings of 1 to 4 (in particular 1 to 3) mean a good to very good herbicidal action; conditions: 2000 g of active substance/ha, sprayed immediately after sowing, evaluated after 3 weeks, ratings scale of nine levels
Protocol: as §1, §2

[6] = test system: Sinapis; experiment: Post-emergent herbicidal action (contact herbicide); type: in vivo; parameters: key: 1=complete damage; 9=no action; Ratings of 1 to 4 (in particular 1 to 3) mean a good to very good herbicidal action; conditions: 2000 g of active substance/ha, sprayed in the 4- to 6-leaf stage, evaluated after about 18 days, ratings scale 1-9
Protocol: (§3) Monocotyledon and dicotyledon test plants are grown in plastic pots with standard soil in a greenhouse and, in the 4- to 6-leaf stage, are sprayed with an aqueous suspension of the test substances of the formula 1, prepared from a 25% wettable power (Example F3, b)), corresponding to a dosage of 2000 g of active substance/ha (500 l of water/ha). The test plants are then grown further in the greenhouse under optimum conditions. After a test period of about 18 days, the test is evaluated with a ratings scale of 9 levels (1=complete damage, 9=no action). Ratings of 1 to 4 (in particular 1 to 3) mean a good to very good herbicidal action.
(§4) Test plants: Sinapis, Stellaria

[7] = test system: Stellaria; experiment: as above; type: in vivo; parameters: key: 1=complete damage; 9=no action; Ratings of 1 to 4 (in particular 1 to 3) mean a good to very good herbicidal action; conditions: 2000 g of active substance/ha, sprayed in the 4- to 6-leaf stage, evaluated after about 18 days, ratings scale 1-9
Protocol: as §3, §4

COS1=NC(Cl)=NC(Cl)=N1 (stereo not shown) [Example H3, 1-methoxy-3,5-dichlorothiatriazine]
stability when left to stand [1]: unstable and decomposes within a few hours when left to stand

COC1=NS(OC)=NC(Oc2cc(F)ccc2F)=N1 (stereo not shown) [Example H10, 1,3-dimethoxy-5-(2′,5′-di-fluorophenoxy)thiatriazine]
melting point: 75 to 76 °C

CC(C)OS1=NC(N)=NC(Oc2cc(F)ccc2F)=N1 (stereo not shown) [Example H14, 3-amino-1-isopropoxy-5-(2′,5′-difluorophenoxy)thiatriazine]
melting point: 163 to 164 °C

CC1(C)CCCC(OS2=NC(N)=NC(Oc3c(F)c(F)c(F)c(F)c3F)=N2)C1 (stereo not shown) [5.131]
Pre-emergent action, rating, Avena [2]: 4
Pre-emergent action, rating, Setaria [3]: 2
Pre-emergent action, rating, Sinapis [4]: 1
Pre-emergent action, rating, Stellaria [5]: 1
Post-emergent action, rating, Sinapis [6]: 1
Post-emergent action, rating, Stellaria [7]: 3

CC1(C)CC2CC(C)(CN2S2=NC(N)=NC(Oc3c(F)c(F)c(F)c(F)c3F)=N2)C1 (single isomer, unassigned) [6.154]
Pre-emergent action, rating, Avena [2]: 4
Pre-emergent action, rating, Setaria [3]: 1
Pre-emergent action, rating, Sinapis [4]: 1
Pre-emergent action, rating, Stellaria [5]: 1
Post-emergent action, rating, Sinapis [6]: 1
Post-emergent action, rating, Stellaria [7]: 1

CCC1CCCCN1S1=NC(N)=NC(Oc2c(F)c(F)c(F)c(F)c2F)=N1 (stereo not shown) [6.30]
Pre-emergent action, rating, Avena [2]: 3
Pre-emergent action, rating, Setaria [3]: 2
Pre-emergent action, rating, Sinapis [4]: 1
Pre-emergent action, rating, Stellaria [5]: 1
Post-emergent action, rating, Sinapis [6]: 2
Post-emergent action, rating, Stellaria [7]: 3

NC1=NS(N2CCCCCC2)=NC(Oc2c(F)c(F)cc(F)c2F)=N1 (stereo not shown) [6.89]
Pre-emergent action, rating, Avena [2]: 2
Pre-emergent action, rating, Setaria [3]: 2
Pre-emergent action, rating, Sinapis [4]: 1
Pre-emergent action, rating, Stellaria [5]: 1
Post-emergent action, rating, Sinapis [6]: 2
Post-emergent action, rating, Stellaria [7]: 3

NC1=NS(N2CCc3ccccc3C2)=NC(Oc2c(F)c(F)cc(F)c2F)=N1 (stereo not shown) [6.173]
Pre-emergent action, rating, Avena [2]: 4
Pre-emergent action, rating, Setaria [3]: 3
Pre-emergent action, rating, Sinapis [4]: 1
Pre-emergent action, rating, Stellaria [5]: 1
Post-emergent action, rating, Sinapis [6]: 2
Post-emergent action, rating, Stellaria [7]: 3

CCN(C1CC(C)CC(C)(C)C1)S1=NC(N)=NC(Oc2c(F)c(F)c(F)c(F)c2F)=N1 (stereo not shown) [6.140]
Pre-emergent action, rating, Avena [2]: 4
Pre-emergent action, rating, Setaria [3]: 3
Pre-emergent action, rating, Sinapis [4]: 2
Pre-emergent action, rating, Stellaria [5]: 1
Post-emergent action, rating, Sinapis [6]: 2
Post-emergent action, rating, Stellaria [7]: 3

NC1=NS(N2CCC[C@H]3CCCC[C@H]32)=NC(Oc2c(F)c(F)cc(F)c2F)=N1 (relative stereo) [6.331]
Pre-emergent action, rating, Avena [2]: 4
Pre-emergent action, rating, Setaria [3]: 2
Pre-emergent action, rating, Sinapis [4]: 1
Pre-emergent action, rating, Stellaria [5]: 1
Post-emergent action, rating, Sinapis [6]: 1
Post-emergent action, rating, Stellaria [7]: 2

NC1=NS(N2CCc3ccccc3C2)=NC(Oc2c(F)c(F)c(F)c(F)c2F)=N1 (stereo not shown) [6.145]
Pre-emergent action, rating, Avena [2]: 4
Pre-emergent action, rating, Setaria [3]: 2
Pre-emergent action, rating, Sinapis [4]: 1
Pre-emergent action, rating, Stellaria [5]: 1
Post-emergent action, rating, Sinapis [6]: 3
Post-emergent action, rating, Stellaria [7]: 3

CC1CC(C)CN(S2=NC(N)=NC(Oc3c(F)c(F)c(F)c(F)c3F)=N2)C1 (stereo not shown) [6.124]
Pre-emergent action, rating, Avena [2]: 3
Pre-emergent action, rating, Setaria [3]: 1
Pre-emergent action, rating, Sinapis [4]: 1
Pre-emergent action, rating, Stellaria [5]: 1
Post-emergent action, rating, Sinapis [6]: 2
Post-emergent action, rating, Stellaria [7]: 3

NC1=NS(N2CC3CCCC2CC3)=NC(Oc2c(F)c(F)c(F)c(F)c2F)=N1 (stereo not shown) [6.185]
Pre-emergent action, rating, Avena [2]: 4
Pre-emergent action, rating, Setaria [3]: 4
Pre-emergent action, rating, Sinapis [4]: 1
Pre-emergent action, rating, Stellaria [5]: 1
Post-emergent action, rating, Sinapis [6]: 1
Post-emergent action, rating, Stellaria [7]: 1

CC(OS1=NC(N)=NC(Oc2c(F)c(F)c(F)c(F)c2F)=N1)[Si](C)(C)C (stereo not shown) [5.329]
Pre-emergent action, rating, Avena [2]: 2
Pre-emergent action, rating, Setaria [3]: 1
Pre-emergent action, rating, Sinapis [4]: 1
Pre-emergent action, rating, Stellaria [5]: 1
Post-emergent action, rating, Sinapis [6]: 1
Post-emergent action, rating, Stellaria [7]: 5

CCCN(CCC)S1=NC(N)=NC(Oc2cc(F)ccc2F)=N1 (stereo not shown) [Example H17, 3-amino-1-dipropylamino-5-(2′,5′-difluorophenoxy)thiatriazine]
melting point: 184 to 185 °C
